Laboratory results taken from US20230330254A1 (Regeneron Pharmaceuticals, Inc., priority 2022, published 2023).
≈ marks a conversion by molar mass, not a printed value. Read-outs that look alike come from different tables or passages of the source.

Legend:
hERG potassium channels = hERG potassium channels (Homo sapiens, UniProt Q12809); test: cell-based
Protocol: For the assay, CHO cells stably expressing hERG potassium channels were plated and cultured for at least 2 days in a humidified and air-controlled (5% CO2) incubator at 37° C. prior to use in electrophysiological experiments. Cells were then harvested using TrypLE and resuspended in physiological solution (10 mM HEPES, 80 mM NaCl, 4 mM KCl, 2 mM CaCl2, 1 mM MgCl2, 5 mM Glucose, 60 mM NM DG, pH 7.4). Test compounds were dissolved in water to obtain stock solutions for different test concentrations. […] One 40 μL addition of the vehicle was applied, followed by a 300s baseline recording period. […] Recordings were required to pass quality control over the duration of the recording or the well was abandoned, and the compound was retested, all automatically set by PatchControl. […] A minimum of 2 replicates per concentration were obtained. […] Curve-fitting and IC50 value calculations were performed by GraphPad Prism 5.0.

Water solubility = type: physicochemical; details: Table 5C
[1] = biological target: T1, human gastric inhibitory polypeptide receptor (GIPR) (Homo sapiens, UniProt P48546); test: Luciferase reporter assay, HEK293/CRE-Luc/hGIPR (Example 17); type: cell-based; parameters: expressed in transfected cells; host or cells: HEK293/CRE-Luc; details: Table 28; CRE-dependent luciferase reporter activity; read-out: HEK293/CRE-Luc/hGlPR EC50
T1 sequence (P48546 22-466): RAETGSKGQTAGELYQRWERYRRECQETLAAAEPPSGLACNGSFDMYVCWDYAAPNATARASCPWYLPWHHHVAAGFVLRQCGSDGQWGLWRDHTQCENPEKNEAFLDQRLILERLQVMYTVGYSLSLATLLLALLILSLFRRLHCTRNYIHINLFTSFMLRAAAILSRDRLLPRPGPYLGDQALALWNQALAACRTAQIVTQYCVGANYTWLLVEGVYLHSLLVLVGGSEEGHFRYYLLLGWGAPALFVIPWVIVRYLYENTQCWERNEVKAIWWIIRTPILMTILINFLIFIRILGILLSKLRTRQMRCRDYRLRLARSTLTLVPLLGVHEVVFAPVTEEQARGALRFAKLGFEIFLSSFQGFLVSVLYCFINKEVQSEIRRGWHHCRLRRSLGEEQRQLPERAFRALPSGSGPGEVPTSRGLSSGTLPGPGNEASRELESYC
Source text: To test the activity of GLP1R agonist payloads, GLP1R agonist linker-payloads (LPs), and anti-GLP1R antibody tethered drug conjugates (ATDCs) of the invention, a cell-based cAMP responsive luciferase reporter assay was developed. To generate the assay cell line, the firefly luciferase gene was placed under the control of a cAMP response element (CRE) located upstream of a minimal promoter and transfected into HEK293 cells and referred to herein as HEK293/CRE-Luc cells.
Three-fold serial dilutions of free payloads or LPs were prepared in 100% DMSO, transferred to fresh assay media, and added to the cells at a final constant DMSO concentration of 0.2%. The last well in the plate served as a blank control containing only the assay media and 0.2% DMSO (untreated well) and was plotted as a continuation of the 3-fold serial dilution. Four to six hours later, luciferase activity was determined after the addition of One-Glo™ reagent (Promega, Cat #E6130) to each well. Relative light units (RLUs) were measured on an Envision luminometer (PerkinElmer) and EC50 values were determined using a four-parameter logistic equation over a 12-point dose response curve (GraphPad Prism). The signal to noise (S/N) was determined by taking the ratio of the highest RLU on the dose response curve to the RLU in the untreated wells. […]

[2] = biological target: T2, human glucagon-like peptide 2 receptor (GLP2R) (Homo sapiens, UniProt O95838); test: Luciferase reporter assay, HEK293/CRE-Luc/hGLP2R (Example 17); type: cell-based; details: Table 28; CRE-dependent luciferase reporter activity
T2 construct: full-length human GLP1R, cynomolgus GLP1R, human glucagon receptor (GCGR), human glucagon-like peptide 2 receptor (GLP2R); expressed in transfected cells; host or cells: HEK293/CRE-Luc
T2 sequence (O95838 1-553): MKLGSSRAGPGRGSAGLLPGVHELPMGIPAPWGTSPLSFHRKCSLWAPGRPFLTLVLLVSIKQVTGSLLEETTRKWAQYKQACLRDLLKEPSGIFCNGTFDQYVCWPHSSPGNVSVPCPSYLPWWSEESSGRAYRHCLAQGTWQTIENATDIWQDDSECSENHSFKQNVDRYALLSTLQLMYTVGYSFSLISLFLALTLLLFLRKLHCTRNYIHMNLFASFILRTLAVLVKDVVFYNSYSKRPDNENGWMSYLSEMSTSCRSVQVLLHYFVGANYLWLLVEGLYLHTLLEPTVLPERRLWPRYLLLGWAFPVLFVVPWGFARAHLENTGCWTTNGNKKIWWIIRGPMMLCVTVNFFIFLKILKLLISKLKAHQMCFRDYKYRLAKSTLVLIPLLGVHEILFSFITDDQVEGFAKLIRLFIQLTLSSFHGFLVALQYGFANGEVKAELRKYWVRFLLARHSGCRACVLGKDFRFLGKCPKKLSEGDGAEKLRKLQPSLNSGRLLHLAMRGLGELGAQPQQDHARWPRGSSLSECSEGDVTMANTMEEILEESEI

hERG potassium channels, sequence (Q12809 whole entry): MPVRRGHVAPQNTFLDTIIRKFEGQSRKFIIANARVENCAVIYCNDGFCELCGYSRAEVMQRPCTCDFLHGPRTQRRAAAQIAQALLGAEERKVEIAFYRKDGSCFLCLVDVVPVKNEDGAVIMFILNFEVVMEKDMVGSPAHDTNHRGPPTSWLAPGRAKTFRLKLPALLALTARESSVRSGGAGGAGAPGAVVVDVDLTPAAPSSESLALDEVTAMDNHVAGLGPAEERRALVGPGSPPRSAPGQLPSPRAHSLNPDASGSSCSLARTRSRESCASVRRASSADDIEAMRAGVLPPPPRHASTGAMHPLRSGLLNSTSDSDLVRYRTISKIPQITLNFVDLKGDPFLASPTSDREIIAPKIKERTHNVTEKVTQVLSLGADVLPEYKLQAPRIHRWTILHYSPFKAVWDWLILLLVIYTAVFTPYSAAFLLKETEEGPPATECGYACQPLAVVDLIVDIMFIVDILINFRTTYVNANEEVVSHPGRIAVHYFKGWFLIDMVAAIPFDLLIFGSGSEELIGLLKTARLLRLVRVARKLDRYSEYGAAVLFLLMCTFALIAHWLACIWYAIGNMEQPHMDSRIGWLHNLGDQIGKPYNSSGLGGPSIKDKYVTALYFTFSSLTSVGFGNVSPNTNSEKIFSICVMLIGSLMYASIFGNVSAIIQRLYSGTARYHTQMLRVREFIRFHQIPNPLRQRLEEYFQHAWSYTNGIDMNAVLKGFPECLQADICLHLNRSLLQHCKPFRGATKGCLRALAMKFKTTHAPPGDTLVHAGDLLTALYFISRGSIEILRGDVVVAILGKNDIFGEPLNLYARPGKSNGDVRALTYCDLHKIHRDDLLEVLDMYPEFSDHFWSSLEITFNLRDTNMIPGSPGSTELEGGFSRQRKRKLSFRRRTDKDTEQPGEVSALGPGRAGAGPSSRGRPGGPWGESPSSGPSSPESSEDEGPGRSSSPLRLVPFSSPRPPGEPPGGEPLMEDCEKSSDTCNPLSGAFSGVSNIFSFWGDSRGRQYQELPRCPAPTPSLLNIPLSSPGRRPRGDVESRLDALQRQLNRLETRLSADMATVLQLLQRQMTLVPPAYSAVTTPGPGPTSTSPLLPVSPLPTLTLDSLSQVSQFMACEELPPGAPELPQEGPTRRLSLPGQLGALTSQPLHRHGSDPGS

Row | SMILES | IC50 (hERG potassium channels) [µM] | IC50 (hERG potassium channels; human, pH 7.4) [µM] | solubility (Water solubility) [mM] | EC50 [1] [µM] | EC50 [2] [µM]
1 | CCc1cc(OCCCCn2cc(COCCOCCOCCOCCOCCOCCOCCOCCN)nn2)ccc1-c1ccc(C[C@H](NC(=O)[C@H](CC(=O)O)NC(=O)[C@H](CO)NC(=O)[C@@H](NC(=O)C(C)(Cc2ccccc2F)NC(=O)[C@@H](NC(=O)CNC(=O)[C@H](Cc2nn[nH]n2)NC(=O)C(C)(C)C(=O)NCCc2cnc[nH]2)[C@@H](C)O)[C@@H](C)O)C(=O)N[C@@H](CCCc2cc(C)cc(C)c2)C(N)=O)cc1 (some centres unmarked) [LP11, NH2-PEG8-triazole-P8] | > 100 | > 100 | 60 (≈ 119 mg/mL) | – | –
2 | CCc1cc(OCCCCn2cc(COCCOCCOCCOCCOCCOCCOCCOCCN)nn2)ccc1-c1ccc(C[C@H](NC(=O)[C@H](CC(=O)O)NC(=O)[C@H](CO)NC(=O)[C@@H](NC(=O)[C@](C)(Cc2ccccc2F)NC(=O)[C@@H](NC(=O)CNC(=O)[C@H](Cc2nn[nH]n2)NC(=O)C(C)(C)C(=O)NCCc2cnc[nH]2)[C@@H](C)O)[C@@H](C)O)C(=O)N[C@@H](CCCc2cc(C)cc(C)c2)C(N)=O)cc1 [M3190] | – | – | – | > 0.2 | > 0.2
